Test system: NCI-H23 complex spheroids with HUVEC/MSC, viability
Experiment: Anticancer human tumor NCI-H23 cell line growth inhibition [RAS]
Details: for IC50: curve of first compound; for viability, T/C: stronger effect = lower value; active means viability on the fitted dose curve at most 10% of control; inactive means the rest
From the text: RAS pathway inhibitors in Combinations in Complex Spheroids
A high-throughput screen of multi-cell type tumor spheroids was designed to identify active combinations of RAS pathway inhibitors and targeted small molecules. Complex spheroids include a stromal component modeled by human endothelial cells (HUVEC) and fibroblasts modeled by human mesenchymal stem cells (MSCs). The concentration ranges selected for each drug and investigational agent were based upon clinically achievable concentrations if the clinical Cmax of the agent was known.
Compounds. The drugs and investigational agents: abemaciclib (NSC768073), cobimetinib (NSC768068), divarasib (GDC6063, NSC841802), docetaxel (NSC628503), GDC-1971 (RLY-1971, NSC841576), gemcitabine (NSC613327), inavolisib (NSC800729), ipatasertib (NSC767898), KB-0742 (NSC834161), MRTX-1133 (NSC836407), osimertinib (NSC779217), RMC-4630 (NSC839698), RMC-6236 (NSC851965), RMC-6291 (NSC852671), Ro-3306 (NSC812927), sapanisertib (NSC764658), SN-38 (NSC673596), staurosporine (NSC755774), SY5609 (NSC837396), and tovorafenib (DAY101, NSC766906), were obtained from the National Cancer Institute (NCI) Developmental Therapeutics Program Chemical Repository. The FDA-approved anticancer drug set is available from the NCI Developmental Therapeutics Program. […] The stock solutions were prepared in dimethyl sulfoxide (DMSO, Sigma-Aldrich, St. Louis, MO, cat. D2650) at 800-fold the tested concentration and stored at -70 degrees C prior to their use. All drugs and investigational agents were tested over a range starting from a high concentration at or near the clinical Cmax and decreasing in half-log increments. If the clinical Cmax for an agent had not been determined, the highest concentration tested was 10 microM.
Cell Culture. All cells were maintained in an incubator at 37 degrees C and 5% CO2 with 95% humidity. The PDC lines were cultured according to standard operating procedures established by the NCI PDMR. All PDCs were thawed and cultured in Matrigel-coated flasks prepared with a working solution of 1X Ham's F-12 nutrient mix, without supplementation (Invitrogen, Waltham, MA, cat. 11765054), 100 U/mL penicillin-streptomycin (Invitrogen, cat. 15140122), and 2.5% Matrigel (Corning Inc., Corning, NY, cat. 354248) for the first three passages. The 362531-283-R-J2-PDC and 782815-120-R-J1-PDC lines were cultured in 6C/Colon 1B media, which includes advanced DMEM/F-12 (Thermo Fisher Scientific, cat. 12634028), 10 mM HEPES (Thermo Fisher Scientific, cat. 15630080), 1X GlutaMAX supplement (Thermo Fisher Scientific, cat. 35050061), 0.1 mg/mL primocin (InvivoGen, San Diego, CA, cat. ant-pm-2), 10% defined fetal bovine serum, heat inactivated (HyClone Laboratories Inc., Logan, UT, cat. SH30070.03HI), 50% L-WRN conditioned media (ATCC, cat. CRL-3276), 1.25 mM N-Acetyl-L-cysteine (Sigma-Aldrich, cat. A9165), 10 mM nicotinamide (Sigma-Aldrich, cat. N0636), 1X B-27 supplement (Thermo Fisher Scientific, cat. 17504044), 1X N-2 supplement (Thermo Fisher Scientific, cat. 17502048), 50 ng/mL human EGF (Thermo Fisher Scientific, cat. PHG0311), and 10 microM Y-27632 dihydrochloride (Tocris Bioscience, cat. 1254). The K12877-001-R-J1-PDC line was cultured in 6I media, which includes all 6C/Colon 1B media plus 10 ng/mL human FGF-10 (PeproTech, cat. 100-26), 1 ng/mL human FGF-2 (PeproTech, cat. 100-18B), 1 µM prostaglandin E2 (Tocris Bioscience, cat. 2296), […] hydrocortisone (Sigma-Aldrich, cat. H4001), and […] bovine insulin (Sigma-Aldrich, cat. I6634). The K86415-001-R-J1-PDC line was cultured in 6D media, which includes all 6C/Colon 1B media components minus the L-WRN conditioned media. The 485176-168-R4-J1-PDC was cultured in PANC media, which includes all 6C/Colon 1B media plus 100 ng/mL human FGF-10 (PeproTech, cat. 100-26), 500 nM SB-431542 (Selleckchem, cat. S1067), and 10 nM gastrin (Tocris Bioscience, cat. 3006). […]

[1] = second compound 0.0316 µM, first compound 0.0316 µM
[2] = second compound 0.0316 µM, first compound 0.1 µM
[3] = second compound 0.0316 µM, first compound 0.316 µM
[4] = second compound 0.0316 µM, first compound 1 µM
[5] = second compound 0.0316 µM, first compound 3.16 µM
[6] = second compound 0.0316 µM, first compound 10 µM
[7] = second compound 0.1 µM, first compound 0.0316 µM
[8] = second compound 0.1 µM, first compound 0.1 µM
[9] = second compound 0.1 µM, first compound 0.316 µM
[10] = second compound 0.1 µM, first compound 1 µM
[11] = second compound 0.1 µM, first compound 3.16 µM
[12] = second compound 0.1 µM, first compound 10 µM
[13] = second compound 0.316 µM, first compound 0.0316 µM
[14] = second compound 0.316 µM, first compound 0.1 µM
[15] = second compound 0.316 µM, first compound 0.316 µM
[16] = second compound 0.316 µM, first compound 1 µM
[17] = second compound 0.316 µM, first compound 3.16 µM
[18] = second compound 0.316 µM, first compound 10 µM
[19] = second compound 1 µM, first compound 0.0316 µM
[20] = second compound 1 µM, first compound 0.1 µM
[21] = second compound 1 µM, first compound 0.316 µM
[22] = second compound 1 µM, first compound 1 µM
[23] = second compound 1 µM, first compound 3.16 µM
[24] = second compound 1 µM, first compound 10 µM
[25] = second compound 3.16 µM, first compound 0.0316 µM
[26] = second compound 3.16 µM, first compound 0.1 µM
[27] = second compound 3.16 µM, first compound 0.316 µM
[28] = second compound 3.16 µM, first compound 1 µM
[29] = second compound 3.16 µM, first compound 3.16 µM
[30] = second compound 3.16 µM, first compound 10 µM
[31] = second compound 10 µM, first compound 0.0316 µM
[32] = second compound 10 µM, first compound 0.1 µM
[33] = second compound 10 µM, first compound 0.316 µM
[34] = second compound 10 µM, first compound 1 µM
[35] = second compound 10 µM, first compound 3.16 µM
[36] = second compound 10 µM, first compound 10 µM

CCC(CC)c1cc(NC2CCC(N)C2)n2nccc2n1 (stereo unspecified) + C#Cc1c(F)ccc2cc(O)cc(-c3ncc4c(N5CC6CCC(C5)N6)nc(OCC56CCCN5CC(F)C6)nc4c3F)c12
1110 nM: IC50 (second compound 3.16 µM)
1780 nM: IC50 (second compound 0.1 µM)
1680 nM: IC50 (second compound 0.316 µM)
< 31.6 nM: IC50 (second compound 10 µM)
1440 nM: IC50 (second compound 1 µM)
inactive: viability, T/C [1] 102% | viability, T/C [2] 129% | viability, T/C [3] 99.8% | viability, T/C [4] 89.4% | viability, T/C [5] 12.8% | viability, T/C [7] 109% | viability, T/C [8] 127% | viability, T/C [9] 104% | viability, T/C [10] 90.9% | viability, T/C [13] 113% | viability, T/C [14] 128% | viability, T/C [15] 98.9% | viability, T/C [16] 83.1% | viability, T/C [17] 10.2% | viability, T/C [19] 108% | viability, T/C [20] 121% | viability, T/C [21] 92% | viability, T/C [22] 71.6% | viability, T/C [23] 9.15% | viability, T/C [25] 76.2% | viability, T/C [26] 70.1% | viability, T/C [27] 57.7% | viability, T/C [28] 55.3% | viability, T/C [31] 36.7% | viability, T/C [32] 45.5% | viability, T/C [33] 41.9% | viability, T/C [34] 37.9%
1800 nM: IC50 (second compound 0.0316 µM)
active: viability, T/C [6] 1.4% | viability, T/C [11] 9.22% | viability, T/C [12] 1.06% | viability, T/C [18] 1.06% | viability, T/C [24] 0.7% | viability, T/C [29] 5.85% | viability, T/C [30] 0.62% | viability, T/C [35] 3.49% | viability, T/C [36] 1.1%

Cc1nc(N2CCC3(CC2)COC(C)C3N)c(CO)nc1Sc1ccnc(N)c1Cl (stereo unspecified) + C#Cc1c(F)ccc2cc(O)cc(-c3ncc4c(N5CC6CCC(C5)N6)nc(OCC56CCCN5CC(F)C6)nc4c3F)c12
inactive: viability, T/C [1] 101% | viability, T/C [2] 110% | viability, T/C [3] 68.5% | viability, T/C [4] 62.7% | viability, T/C [5] 42.8% | viability, T/C [6] 48.3% | viability, T/C [7] 115% | viability, T/C [8] 110% | viability, T/C [9] 64.8% | viability, T/C [10] 48.6% | viability, T/C [11] 44.2% | viability, T/C [12] 41.5% | viability, T/C [13] 106% | viability, T/C [14] 95.2% | viability, T/C [15] 51.4% | viability, T/C [16] 45.5% | viability, T/C [17] 36% | viability, T/C [18] 39.5% | viability, T/C [19] 78.7% | viability, T/C [20] 60.7% | viability, T/C [21] 45.2% | viability, T/C [22] 35.3% | viability, T/C [23] 35.2% | viability, T/C [24] 32.6% | viability, T/C [25] 57.8% | viability, T/C [26] 45.7% | viability, T/C [27] 35.8% | viability, T/C [28] 29.6% | viability, T/C [29] 30.9% | viability, T/C [30] 26.9% | viability, T/C [31] 38.1% | viability, T/C [32] 35.2% | viability, T/C [33] 31.7% | viability, T/C [34] 26.1% | viability, T/C [35] 26.8% | viability, T/C [36] 18.2%
66.2 nM: IC50 (second compound 3.16 µM)
769 nM: IC50 (second compound 0.1 µM)
< 31.6 nM: IC50 (second compound 10 µM)
216 nM: IC50 (second compound 1 µM)
> 10000 nM: IC50 (second compound 0.0316 µM)
391 nM: IC50 (second compound 0.316 µM)

NC1c2ccccc2OC12CCN(c1cnc3c(N4CCCc5ncccc54)n[nH]c3n1)CC2 (stereo unspecified) + C#Cc1c(F)ccc2cc(O)cc(-c3ncc4c(N5CC6CCC(C5)N6)nc(OCC56CCCN5CC(F)C6)nc4c3F)c12
57 nM: IC50 (second compound 1 µM)
281 nM: IC50 (second compound 0.0316 µM)
< 31.6 nM: IC50 (second compound 3.16 µM) | IC50 (second compound 10 µM)
inactive: viability, T/C [1] 69.3% | viability, T/C [2] 76.8% | viability, T/C [3] 47.3% | viability, T/C [4] 41.6% | viability, T/C [5] 35.7% | viability, T/C [6] 34% | viability, T/C [7] 74.9% | viability, T/C [8] 65% | viability, T/C [9] 45.8% | viability, T/C [10] 38.6% | viability, T/C [11] 33.9% | viability, T/C [12] 30.1% | viability, T/C [13] 76.3% | viability, T/C [14] 56.4% | viability, T/C [15] 40.3% | viability, T/C [16] 36.4% | viability, T/C [17] 31.4% | viability, T/C [18] 22.3% | viability, T/C [19] 58.4% | viability, T/C [20] 40.6% | viability, T/C [21] 32.8% | viability, T/C [22] 32.4% | viability, T/C [23] 21.7% | viability, T/C [24] 19.6% | viability, T/C [25] 38.5% | viability, T/C [26] 38.6% | viability, T/C [27] 31.5% | viability, T/C [28] 25.2% | viability, T/C [29] 21% | viability, T/C [30] 15.5% | viability, T/C [31] 28.4% | viability, T/C [32] 30.7% | viability, T/C [33] 19% | viability, T/C [34] 16.2% | viability, T/C [35] 15.5% | viability, T/C [36] 12.6%
268 nM: IC50 (second compound 0.1 µM)
175 nM: IC50 (second compound 0.316 µM)

From PubChem BioAssay AID2060885 (Molecular Pharmacology Branch, DTP, NCI, 2025)
